In PubChem BioAssay AID463101 (The Scripps Research Institute Molecular Screening Center, 2010):
Active and inactive are the calls of the source.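 How the source made its calls: active means at 63 nM, GSTO1 inhibition of at least 80% or band labeling of at least 80% relative to 1 µM; inactive means the rest.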

Biological target: Glutathione S-transferase omega-1 (Homo sapiens) (UniProt P78417)
Test: alkyne analogs labeling GSTO1 in proteome, late-stage follow-up, mechanism study for GSTO1 inhibitor project, cell lysate, MDA-MB-435 proteome, click chemistry, set 2 (AID 463101)
Conditions: MDA-MB-435 soluble proteome, gel ABPP fluorescence; for outcome / labeling: direct click chemistry labeling assay; for labeling: click chemistry direct labeling series, at 0.25 µM, stronger effect = higher value; for inhibition: in situ competitive ABPP, probe SE-Rh, at 1 µM (top of the series)

Glutathione S-transferase omega-1 (Homo sapiens), sequence (P78417 whole entry, looked up): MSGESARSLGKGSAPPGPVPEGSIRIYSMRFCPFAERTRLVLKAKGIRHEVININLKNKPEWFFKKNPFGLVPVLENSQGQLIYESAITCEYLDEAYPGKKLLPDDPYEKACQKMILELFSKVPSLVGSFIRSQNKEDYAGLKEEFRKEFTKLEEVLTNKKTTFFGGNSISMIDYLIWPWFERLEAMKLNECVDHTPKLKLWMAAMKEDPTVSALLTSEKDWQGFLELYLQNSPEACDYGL

SMILES | outcome | labeling [%] | inhibition
C#CCN(CCCN(C(=O)CCl)c1ccc([N+](=O)[O-])cc1)C(=O)C(F)(F)F | active | 94 | 100%
C#CCCC(=O)NCCCN(C(=O)CCl)c1ccc([N+](=O)[O-])cc1 | inactive | 77 | 100% (inactive)
